Where two headings read alike, the source gives them in different places.
Assays:
CYP 1A1/2 = details: human
CYP1A2 = format: cell-based, human; details: 3-MC 5 μM for 24 h; 3D versus control 2D culture
Description: Then, total RNA was extracted from cell pellets using NucleoSpin RNA (Macherey-Nagel, Hoerdt, France) and the concentration of total RNA was measured with a NanoDrop ND-1000 (NanoDrop Technologies, Wilmington, USA). Total RNA was used for cDNA synthesis using the High Capacity cDNA reverse transcription kit (Applied Biosystems, Saint Aubin, France). Real-time PCR for all genes was performed using SYBR green technology with the Power SYBR Green PCR master mix (Applied Biosystems, Saint Aubin, France) and the CFX384 Real-Time System (Biorad) according to the manufacturer's recommendations. Primer sequences used are described in Tables 2 and 3 below.
The amplification curves were analyzed with the Biorad CFX Manager software using the comparative regression method. GAPDH was used for the normalization of expression data. The relative amount of measured mRNA in samples was determined using the 2-ΔΔCT method where ΔΔCT=(CTtarget-CTGAPDH)sample−(CTtarget-CTGAPDH)calibrator. Final results were expressed as the n-fold differences in target gene expression in tested samples when compared with the mean expression value of calibrator. Values are given for one experiment representative of at least three independent experiments.

[1] = test system: primary human hepatocytes (PHH); format: cell-based
Description: After 9 days, immuno-histochemical staining was performed as described hereinabove to detect the presence of phosphorylated H2AX (i.e., γH2Ax), a marker of DNA double-strand break, in the PHH.

[2] = test system: primary human hepatocytes (PHH)
Description: PHH either in control 2D culture (2D) or in 3D culture established according to the method of the invention in a collagen matrix (3D) were incubated with the indicated genotoxic drugs at the indicated concentrations (see Table 7) from the start of the culture. After 9 days, PHH were extracted from the collagen matrix by the action of purified collagenase. The cell pellets were resuspended in 0.5% low-melting point agarose and laid on conventional microscope slides covered with regular agarose. The electrophoresis migration was processed and after staining with propidium iodide, at least 100 images were acquired using a fluorescence microscope. The images were analyzed using the Comet Assay IV software. The extent of DNA damage in individual cells was evaluated by the percentage of tail DNA.

[3] = test system: primary human hepatocytes (PHH); remark: listed apart in the source
[4] = test system: MAPK MEK1/2-ERK1/2 pathway

**Q.** Cc1ccc2cc3c(ccc4ccccc43)c3c2c1CC3 [3-MC, 3-methylcholanthrene] was tested. Which “induction of CYP1A (EROD) activity” value (CYP 1A1/2) did it give?
**A.** potentialization of 3-methylcholanthrene (3-MC) induction of CYP1A (EROD) activity was only observed in PHH in 3D culture

**Q.** What about the “CYP1A2 mRNA expression after 3-MC induction” value (CYP1A2) of the same compound?
**A.** significantly increased CYP1A2 mRNA expression in PHH in 3D culture as compared to that in PHH in control 2D culture

**Q.** With Nc1ccc(-c2ccccc2)cc1 [4-ABP, 4-aminobiphenyl] as the compound, how does the “PHH with DNA damages (γH2Ax positive cells)” value ([1]; human) read?
**A.** about 50%

**Q.** What about the “levels of DNA damages in 3D culture, in words” value [2] of the same compound?
**A.** higher (about the double) and dose-dependent levels of DNA damages

**Q.** What about the “levels of DNA damages (percentage of tail DNA)” value ([2]; human) of the same compound?
**A.** about 3%

**Q.** With aflatoxin B1 [AFB1] as the compound, how does the “PHH with DNA damages (γH2Ax positive cells)” value [1] read?
**A.** about 35%

**Q.** For N#CC(=C(/N)Sc1ccccc1N)/C(C#N)=C(\N)Sc1ccccc1N [U0126], which “Ki67 / cyclin D1 positive cells after transient MEK/ERK inhibition” value [3] is on record?
**A.** No positive cells could be detected

**Q.** What about the “ERK1/2 activity (ERK1/2 phosphorylation)” value [4] of the same compound?
**A.** strong inhibition of ERK1/2 activity
